Assay results: US20090291857A1, “METHODS TO IDENTIFY INHIBITORS OF THE UNFOLDED PROTEIN RESPONSE” (THE BOARD OF TRUSTEES OF THE LELAND STANFORD JUNIOR …, priority 2006, published 2009)

Assays:
ATF6 = ATF6 cleavage in hypoxic HT1080 cells (Western blot); type: cell-based, human; details: 2.5 μM, hypoxia
Procedure: A. Effect of irestatin 9389 on PERK and ATF6 pathways. HT1080 cells were treated with vehicle alone (lanes 1-4) or 2.5 μM irestatin 9389 (lanes 5-8) and cultured under aerobic conditions for 18 hours (N) or shifted to hypoxia for the indicated times. Protein lysates were analyzed by Western blot analysis using antisera specific for ATF6 (top), CHOP/GADD153 (middle) or actin (bottom). Arrow indicates the cleaved, transcriptionally active form of ATF6. B. Cleavage of caspase-3 in irestatin-treated cells under hypoxia. HT1080 cells were cultured in normoxia (N) or under hypoxia for 36 hours (H 36) in absence or presence of irestatin 9389 (2.5 μM). Arrows indicate proteolytically cleaved caspase-3. C. Colony formation assay. HT1080 cells were treated as in B under normoxia (N) or hypoxia for 48 hours (H 48). Cells were harvested, counted, and allowed to grow under normal culture conditions for 11-12 days. Colonies were visualized with crystal violet staining. D. Quantification of clonogenic survival assay. Values represent the mean+/−SEM from at least 4 independent experiments. E. TUNEL staining of cells treated as in C. F. Quantification of TUNEL-positive cells. Values represent the mean+/−SEM from at least 3 experiments. […] Cells were harvested at the indicated times and counted by hemocytometer. Values represent the mean calculated from triplicate experiments +/−SEM. […]

HT1080 cells = assay: Clonogenic survival / colony formation assay, HT1080; type: cell-based, human; details: 2.5 μM
Procedure: Several of the candidate irestatins were tested in a hypoxia clonogenic survival assay. […] HT1080 fibrosarcoma cells stably were treated with 1 uM of the indicated irestatin or left untreated, and incubated in hypoxia (0.01% oxygen) for 48 hrs at 37° C. Cells were harvested and counted, and allowed to form colonies under normal oxygen tension. Survival rate is expressed as the fraction of colonies formed divided by the total number of cells seeded for each condition. For all experiments, cells were plated in triplicate, and all experiments were repeated at least three times. These experiments were repeated using MiaPaCa2 cells in place of the HT 1080 fibrosarcoma cells.
For hypoxia survival assays, cells were grown in 60 mm dishes until reaching at 50-70% confluence and shifted to hypoxia (0.1% O2) for 48 hrs. Cells were trypsinized, counted using a hemocytometer, and replated in triplicate at 1,000-20,000 cells per plate in normal culture medium. After 10-12 days of growth under normal oxygen conditions, colonies were stained with 0.2% crystal violet in ethanol and counted. Survival values are expressed as the number of colonies divided by the total number of cells seeded for each condition, normalized to the plating efficiency under normal oxygen conditions. […]
A. Effect of irestatin 9389 on PERK and ATF6 pathways. […] D. Quantification of clonogenic survival assay. […]

With Cc1csc(NC(=O)CSc2nc3c(c(C(F)(F)F)c2C#N)CCC3)n1 [Compound 9389] as the molecule, how does the “proteolytic cleavage of ATF6 into active 50 kDa form” value (ATF6) read?
Its value is “significantly increased”.

And the “colony formation after hypoxia” value (HT1080 cells; hypoxia 48 hours)?
The value was “strongly inhibited colony formation”.

What about the “survival of HT1080 cells under normal oxygen” value (HT1080 cells; normal oxygen conditions) of the same molecule?
The value was “negligible effect”.
